The values below come from patent publication US20040229931A1, “1-Aryl-3-(indol-5-yl) prop-2-en-1-ones, compositions containing them and use” (Aventis Pharma S. A., priority 2003, published 2004).

The subject of data set [1] is HeLa cells. The data set can be described thus: Inhibition of proliferation of HeLa tumor cells ([14C]thymidine incorporation). It is filed as cell-based. Particulars: Homo sapiens, 48 hours, read-out: Inhibition of cell proliferation IC50, HeLa. The method, then: The proliferation of HeLa or HDMEC cells is evaluated by measuring the incorporation of [^14C]thymidine in the following manner. The HeLa cells (epithelial tumor cells of human origin) are cultured in a DMEM medium (Gibco) which contains 10% of foetal calf serum and antibiotics (1% penicillin, 1% streptomycin). To carry out the proliferation test, the cells are inoculated into 96-well Cytostar microplates (Amersham), at the rate of 5000 cells per well. [^14C]Thymidine (0.1 μCi/well) and the products to be evaluated are then added. Variable concentrations of products of up to 10 μM are used; the DMSO (solvent used to solubilize the products) should not exceed 0.5% in the medium. 48 hours after incubation at 37° C., the radioactivity incorporated into the cells is measured by counting the plate in a TR1-LUX counter (Wallac). The IC50 is defined as the concentration of compound which reduces by 50% the radioactivity compared with an untreated control.
On the technique in general: Dividing cells build labelled thymidine or BrdU into new DNA.

In data set [2] the test system is HDMEC cells. The data set can be described thus: Inhibition of proliferation of endothelial cells HDMEC ([14C]thymidine incorporation). Format: cell-based. The conditions noted are these: Homo sapiens, Endothelial cell, 48 hours. The method, then: The evaluation of the detachment of the endothelial cells in vitro is determined in the following manner. HDMEC cells (Human Dermal Microvascular Endothelial Cells, Promocell, c-122102) are cultured in an ECGM-MV medium which contains 5% foetal calf serum, growth factors (EGF 10 ng/ml, hydrocortisone 1 μg/ml, 0.4% growth supplement with heparin) and antibiotics (amphoteracin 50 ng/ml, gentamycin 50 μg/ml). For the detachment test, the HDMECs are inoculated at 5 000 cells in clear-bottomed 96-well plates (Costar) precoated with fibronectin (10 μg/ml) or vitronectin (1 μg/ml) or gelatin. Twenty-four hours later, the culture medium is replaced with ECGM-MV 0.1% BSA medium containing the products indicated. […] The fluorescence of the cells which remain attached to the substratum of the well is counted using a fluorimeter, Spectrafluor Plus (Tecan excitation 485 nm, and emission 535 nm). The data are the mean of six different samples and are expressed as the percentage of the control (untreated cells).
The proliferation of HeLa or HDMEC cells is evaluated by measuring the incorporation of [^14C]thymidine in the following manner. […] [^14C]Thymidine (0.1 μCi/well) and the products to be evaluated are then added. […] 48 hours after incubation at 37° C., the radioactivity incorporated into the cells is measured by counting the plate in a TR1-LUX counter (Wallac). […]

Data set [3] is described as follows: Ames test (mutagenicity). From the text:
(§1) Another problem posed consisted in obtaining products having all the advantages described above without the disadvantages frequently encountered during the study of products of the chalcone family. These disadvantages are (i) the problems of cardiac toxicity, which can be evaluated by measuring the inhibition of Herg receptors, (ii) finally, and to a lesser degree, the problems of mutagenicity, which can be evaluated in particular in the Ames test.

In data set [4] the target is T1, Tubulin (Sus scrofa, UniProt P02550+P02554).
T1 construct: Tubulin is purified from pig brains according to published methods; from tissue; host or cells: pig brain
T1 sequence (P02550 whole entry): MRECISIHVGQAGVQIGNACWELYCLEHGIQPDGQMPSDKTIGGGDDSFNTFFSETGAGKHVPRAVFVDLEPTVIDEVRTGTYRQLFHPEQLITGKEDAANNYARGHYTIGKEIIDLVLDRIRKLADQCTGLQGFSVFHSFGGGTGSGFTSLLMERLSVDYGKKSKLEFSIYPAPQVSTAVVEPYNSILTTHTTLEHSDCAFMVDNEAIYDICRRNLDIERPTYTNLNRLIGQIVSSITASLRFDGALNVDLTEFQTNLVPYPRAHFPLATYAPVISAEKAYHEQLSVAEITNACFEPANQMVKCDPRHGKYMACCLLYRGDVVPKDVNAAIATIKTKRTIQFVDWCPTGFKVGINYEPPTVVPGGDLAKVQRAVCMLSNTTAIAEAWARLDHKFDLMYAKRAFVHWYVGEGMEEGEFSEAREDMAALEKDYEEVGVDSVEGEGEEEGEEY
T1 sequence (P02554 whole entry): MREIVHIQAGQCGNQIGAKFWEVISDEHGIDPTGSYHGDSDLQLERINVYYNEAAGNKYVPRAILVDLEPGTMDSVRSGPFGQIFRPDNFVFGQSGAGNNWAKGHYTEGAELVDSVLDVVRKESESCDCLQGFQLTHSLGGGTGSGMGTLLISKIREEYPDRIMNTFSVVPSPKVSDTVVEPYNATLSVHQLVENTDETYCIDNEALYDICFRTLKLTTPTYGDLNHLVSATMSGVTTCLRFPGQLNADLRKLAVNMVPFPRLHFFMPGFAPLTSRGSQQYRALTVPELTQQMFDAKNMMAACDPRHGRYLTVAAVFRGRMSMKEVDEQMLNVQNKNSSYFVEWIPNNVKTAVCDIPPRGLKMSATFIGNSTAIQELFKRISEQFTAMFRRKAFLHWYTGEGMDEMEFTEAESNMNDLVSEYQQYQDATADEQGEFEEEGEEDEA
In words: Inhibition of polymerization of tubulin (turbidimetry). Format: biochemical. Particulars: pig brain tubulin 10 μM, turbidity at 350 nm, 37° C. The method, then:
Tubulin is purified from pig brains according to published methods (Shelanski et al., Proc. Natl. Acad. Sci. USA, 70, 765-768. Weingarten et al., 1975, Proc. Natl. Acad. Sci. USA, 72, 1858-1862). Briefly, the brains are ground and centrifuged in an extraction buffer. The tubulin contained in the supernatant of the extract undergoes two successive cycles of polymerization at 37° C. and depolymerization at 4° C., before being separated from the MAPs (Microtubule Associated Proteins) by chromatography on a phosphocellulose P11 column (Whatman). The tubulin thus isolated is more than 95% pure. It is stored in a buffer called RB/2 30% glycerol whose composition is 50 mM MES-NaOH [2-(N-morpholino)ethanesulfonic acid], pH 6.8; 0.25 mM MgCl2; 0.5 mM EGTA; 30% glycerol (v/v), 0.2 mM GTP (guanosine-5′-triphosphate).
The polymerization of tubulin to microtubules is monitored by turbidimetry as follows: the tubulin is adjusted to a concentration of 10 μM (1 mg/ml) in RB/2 30% glycerol buffer to which 1 mM GTP and 6 mM MgCl2 are added. The polymerization is triggered by an increase in temperature from 6° C. to 37° C. in a cuvette having an optical path length of 1 cm, placed in a UVIKON 931 spectrophotometer (Kontron) equipped with a thermostated cuvette holder. The increase in the turbidity of the solution is monitored at 350 nm.
The compounds of this invention are dissolved at 10 mM in DMSO and added at variable concentrations (0.5 to 10 μM) to the tubulin solution before polymerization. The IC50 is defined as the concentration of compound which inhibits the rate of polymerization by 50%.

The subject of data set [5] is C51 murine adenocarcinoma (colon tumor). The data set can be described thus: Evaluation of tumor necrosis in vivo. The conditions noted are these: 35 mg/kg, intravenous injection, 24 hours after treatment, female BALB/c mice; listed as EXAMPLE 2. From the text: Mice are bred either by IFFA-CREDO (Domaine des Oncins, 69210 L'Arbresle, France) from a breed obtained by Jackson Laboratories, Bar Harbor, Me., USA, or alternatively by Charles River France (76410 St Aubin les Elbeuf, France) from a breed obtained by Charles River, USA. The mice initially weigh more than 18 g at the start of the trial. They have free access to food (UAR reference 113, Villemoisson, 91160 Epinay sur Orge, France) and to water.
The tumors used are currently transplanted in our laboratories. All these tumors are at the Frederick Cancer Research Facility (Frederick, Md., USA) at the repository of frozen tumors of the National Cancer Institute (NCI), or at the American Type Culture Collection (ATCC, Rockville, Md., USA).
The techniques for tumor transplantation, chemotherapy and data analysis have been presented in detail (Corbett et al., 1982a; Corbett et al., 1982b).
To summarize, the animals necessary for one experiment are assembled and bilaterally implanted on day 0 (zero).
The growth of solid tumors develops freely up to the desired size. […]
The samples are then treated, cut into sections, stained with haematoxylin, eosin and saffron yellow, and are then examined […]. The tumor necrosis (necrosis±degeneration) is evaluated microscopically using a scale of extent from 0 to 5: […]
The necrosis due to the experiment was evaluated on an untreated control. […]

Data set [6] addresses Herg receptors (Homo sapiens, UniProt Q12809). In words: Inhibition of Herg receptors (cardiac toxicity).
Excerpt: as §1

A value given as a limit tells only on which side of the number the result lay.

Sequence of Herg receptors (Q12809 whole entry): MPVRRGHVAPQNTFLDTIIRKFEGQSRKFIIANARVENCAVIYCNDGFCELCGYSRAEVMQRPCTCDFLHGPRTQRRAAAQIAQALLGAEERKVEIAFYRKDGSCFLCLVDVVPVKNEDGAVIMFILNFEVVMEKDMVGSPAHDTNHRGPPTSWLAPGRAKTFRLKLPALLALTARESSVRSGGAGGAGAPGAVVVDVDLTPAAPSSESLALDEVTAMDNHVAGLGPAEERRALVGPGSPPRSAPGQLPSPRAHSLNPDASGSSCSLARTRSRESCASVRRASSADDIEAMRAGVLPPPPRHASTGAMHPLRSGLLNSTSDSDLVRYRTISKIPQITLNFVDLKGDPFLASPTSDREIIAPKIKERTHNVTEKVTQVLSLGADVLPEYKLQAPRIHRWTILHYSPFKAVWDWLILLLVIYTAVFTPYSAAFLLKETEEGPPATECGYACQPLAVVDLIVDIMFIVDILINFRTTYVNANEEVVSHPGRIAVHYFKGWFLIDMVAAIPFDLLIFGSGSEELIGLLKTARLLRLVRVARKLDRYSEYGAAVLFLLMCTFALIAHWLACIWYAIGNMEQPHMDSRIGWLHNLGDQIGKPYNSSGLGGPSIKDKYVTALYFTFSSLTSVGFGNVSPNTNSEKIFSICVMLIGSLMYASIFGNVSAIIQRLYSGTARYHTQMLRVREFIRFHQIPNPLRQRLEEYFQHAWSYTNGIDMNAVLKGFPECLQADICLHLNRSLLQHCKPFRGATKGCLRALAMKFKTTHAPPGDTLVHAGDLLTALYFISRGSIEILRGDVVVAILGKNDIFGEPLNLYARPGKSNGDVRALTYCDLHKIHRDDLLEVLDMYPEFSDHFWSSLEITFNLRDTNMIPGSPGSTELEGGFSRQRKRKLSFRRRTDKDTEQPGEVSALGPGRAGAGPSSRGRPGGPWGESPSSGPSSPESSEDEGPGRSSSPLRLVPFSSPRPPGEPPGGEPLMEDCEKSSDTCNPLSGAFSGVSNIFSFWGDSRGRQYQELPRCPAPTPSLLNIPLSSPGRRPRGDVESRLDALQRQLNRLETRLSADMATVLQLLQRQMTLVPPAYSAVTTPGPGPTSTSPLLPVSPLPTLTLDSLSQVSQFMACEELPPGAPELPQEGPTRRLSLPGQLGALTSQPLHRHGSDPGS

As usually defined, the melting point is the temperature of the solid-liquid transition. As to `COc1cc(C(=O)/C(C)=C/c2ccc3c(ccn3CCO)c2)cc(OC)c1OC` [Example 1, E-2-Methyl-3-[1-(2-hydroxyethyl)indol-5-yl]-1-(3,4,5-trimethoxyphenyl)propenone], the melting point amounted to 119 °C. In addition, the IC50 in data set [1] is 3.48 to 3.75 nM. This molecule came in with an IC50 in data set [2] of 0.97 to 3.29 nM. In addition, the Ames result in data set [3] is recorded as “negative”. Moreover, the IC50 in data set [4] amounted to 800 nM.

Take `COc1cc(C(=O)/C(C)=C/c2ccc3c(ccn3CCO)c2)cc2c1OCO2` [Example 2, E-2-Methyl-3-[1-(2-hydroxyethyl)indol-5-yl]-1-(3-methoxy-4,5-methylenedioxyphenyl)propenone]: the melting point was determined as 83 °C. Moreover, in data set [1], the IC50 fell in the range of 1.23 to 1.62 nM. In data set [2], the IC50 lay in the range of 0.22 to 0.61 nM. The Ames result in data set [3] is “negative”. For the same molecule, the “C51 colon Tumor necrosis In vivo (grade, scale 0 to 5)” value in data set [5] is listed as 5 (considerable, >75%). Besides, the IC50 in data set [6] was greater than 30000 nM. The same molecule displayed an IC50 in data set [4] of 600 nM.

The molecule `COc1ccc(OC)c(C(=O)/C(C)=C/c2ccc3c(ccn3CCO)c2)c1` [Example 3, E-2-Methyl-3-[1-(2-hydroxyethyl)-1-H-indol-5-yl]-1-(2,5-dimethoxyphenyl)propenone] showed a melting point of 112 °C. The Ames result in data set [3] was “negative”. For the same molecule, the IC50 in data set [4] was 830 nM.
